Where “and” joins values, the source holds several entries; their conditions need not be identical. Identical values can stand only once.
What was measured:
[1] = system: CA215 antigen on OC-3-VGH cancer cells; assay: Direct binding enzyme immunoassay of RP215-HRP to OC-3-VGH cancer cell-coated wells (NaIO4 treatment, goat anti-human IgG competition); conditions: for Optical Density at 450 nm / percent maximum binding: RP215-HRP 10 ug/ml + normal mouse IgG 10 ug/ml
Procedure: PBS-washed OC-3-VGH cancer cells (conc. 1×10^6 cells/ml) were incubated with 100 mM NaIO4 for 30 minutes, the cells were washed with PBS containing 0.5% BSA, and then dried on microwells at 1×10^4 cells/well. The cell-coated microwells were then blocked with 0.5% BSA in PBS and direct binding enzyme immunoassays using RP215 labeled with horseradish peroxidase (RP215-HRP) were performed at 37° C. for one hour followed by extensive washes and color development with TMB substrate. For comparison wells coated with cancer cells without NaIO4 treatments served as control.

[2] = system: OC-3-VGH ovarian cancer cells tumors; assay: Tumor growth in nude mice implanted subcutaneously with cancer cells; type: in vivo; conditions: for Percent (average tumor weight, negative control = 100) / Average of Tumor Weight: n=4; for Body Weight (individual mouse) / Tumor Weight (individual mouse): mice #1-4
Procedure: Groups of four nude mice were implanted subcutaneously with 2×10^6 cells in 0.2 ml per mouse at sites near the breast for a growth period of 2-3 weeks. Treatments were performed after visible apparent growth of tumors. The radioactive labeling of the mAb was at a specific radioactivity of 12.5 μCi/mg.
The mice were sacrificed on day 16 after treating with antibody, and the size of tumors in each mouse was determined by weight together with the body weight.

CA215 = assay: Sandwich EIA with coated RP215 forms, OC-3-VGH shed medium and HRP-labeled RP215; type: binding, human; conditions: for Relative Signal Intensity in Sandwich EIA: antibody coated at 5 μg/ml, 450 nm
Procedure: Each was coated separately at 5 μg/ml overnight in microwells. The microwells were treated with concentrated cell culture shed medium of OC-3-VGH cells (to supply CA215) and then with HRP-labeled RP215 as a detection antibody. The detection antibody was incubated with each well for 60 min. at 37° C. After 30 min, TMB substrate was added for 20 min. of color development and, after stopping the reaction, the intensity determined at 450 nm in an ELISA reader. In some cases, 10 μg/ml human IgG was added to the wells, but this had no evident effect on the signal intensity.

Goat Anti-mouse IgG = assay: Binding of well-coated antibodies to detecting antibody; conditions: for Relative Intensity: detecting antibody Goat Anti-mouse IgG, RP215 adjusted to 100%
From the text: In row 1, the results were normalized to 100% for the interaction between RP215 and goat anti-mouse IgG. As shown in the first row, goat anti-mouse IgG bound comparatively poorly to the humanized or chimeric human forms.

Goat Anti-human IgG = assay: as above; conditions: for Relative Intensity: detecting antibody Goat Anti-human IgG, hRP215 adjusted to 100%
From the text: In row 2, when goat anti-human IgG is used as a detector, and humanized RP215 was set at 100%, decreased binding was shown for human IgG, and very reduced binding for the chimeric or murine RP215.

Goat Anti-human IgFc = assay: as above
Goat Anti-human IgFab = assay: as above
[3] = system: CA215 present in OC-3-VGH cancer cells; assay: Secondary two-step ELISA, direct binding of anti-immunoglobulin antibodies to CA215 in OC-3-VGH cancer cells; design: species or system human; conditions: 1.125 ug/ml primary antibody; ODn = corresponding normal mouse IgG concentration
Procedure: In this case the experiment was conducted as a secondary two-step ELISA with primary antibodies incubated with sample overnight at room temperature, followed by goat antibody Anti-Mouse IgG-ALP, for 1 hour at 37° C. ODs is the OD value of sample and ODn is the OD value of corresponding normal mouse IgG concentration.

[4] = system: OC-3-VGH ovarian cancer cells; assay: Growth of OC-3-VGH cell cultures in vitro; type: cell-based, human; conditions: addition to cell cultures of OC-3-VGH ovarian cancer cells
Procedure: Cell culture growth was also not inhibited either by human IgG or goat anti-human IgG in vitro up to a concentration of 200 μg/ml in the cell culture.

[5] = 60 mg/Kg, sacrificed day 16 after treating
[6] = high dose 10 mg/Kg (I131-labeled: + 125 μCi), day 16, 10 mg/kg, in g (unit assumed)
[7] = low dose 2 mg/Kg (I131-labeled: + 25 μCi), day 16, 2 mg/kg, in g (unit assumed)

RP215-HRP: RP215 labeled with horseradish peroxidase
binding between RP215-HRP and cancer cell-coated wells treated with periodate (in words) ([1]; 100 mM NaIO4 for 30 minutes vs untreated cells): drastically reduced | Optical Density at 450 nm ([1]; with NaIO4 treatment): 0.797 | percent maximum binding ([1]; with NaIO4 treatment): 37% | Optical Density at 450 nm ([1]; without NaIO4 treatment): 2.153 | percent maximum binding ([1]; without NaIO4 treatment): 100%

O=P1(N(CCCl)CCCl)NCCCO1 (centres unmarked) [Cyclophosphonamide, reference compound]
Percent (average tumor weight, negative control = 100) ([2]; 60 mg/Kg, day 16): 73.2% | Average of Tumor Weight ([2]; 60 mg/Kg, day 16, in g (unit assumed)): 0.09575 | Body Weight (individual mouse) [2, 5]: 21.18 (2×) and 21.42 and 23.37 | Tumor Weight (individual mouse) [2, 5]: 0.098 (2×) and 0.096 and 0.091

chRP215: chimeric RP215 mAb with human constant regions and the murine variable regions of RP215
Relative Signal Intensity in Sandwich EIA (CA215; 10 μg/ml Human IgG): 15.4% | Relative Signal Intensity in Sandwich EIA (CA215; No Human IgG): 14.5% | binding affinity to CA215 compared with RP215 (in words) (CA215; sandwich EIA): lower binding affinity | Relative Intensity (Goat Anti-mouse IgG): ~7% | Relative Intensity (Goat Anti-human IgG): ~10% | Relative Intensity (Goat Anti-human IgFc): 45% | Relative Intensity (Goat Anti-human IgFab): 10%

RP215: monoclonal antibody (mouse IgG) to tumor-associated antigen CA215; hybridoma deposited as ATCC HB10095
ODs405/ODn405 [3]: 11.6 | effect on growth of cell cultures (in words) [4]: no effect on growth | Body Weight (individual mouse) [2, 6]: 21.43 and 23.05 and 22.15 and 23.56 | Tumor Weight (individual mouse) [2, 6]: 0.088 and 0.077 and 0.095 and 0.086 | Percent (average tumor weight, negative control = 100) ([2]; high dose 10 mg/Kg (I131-labeled: + 125 μCi), day 16): 66.2% | Average of Tumor Weight ([2]; high dose 10 mg/Kg (I131-labeled: + 125 μCi), day 16, in g (unit assumed)): 0.0865 | Body Weight (individual mouse) [2, 7]: 21.76 and 20.57 and 21.98 and 22.64 | Tumor Weight (individual mouse) [2, 7]: 0.103 and 0.122 and 0.080 and 0.104 | Percent (average tumor weight, negative control = 100) ([2]; low dose 2 mg/Kg (I131-labeled: + 25 μCi), day 16): 78.2% | Average of Tumor Weight ([2]; low dose 2 mg/Kg (I131-labeled: + 25 μCi), day 16, in g (unit assumed)): 0.1022 | tumor growth in vivo (in words) ([2]; nude mice): successful in inhibiting tumor growth in vivo | Relative Signal Intensity in Sandwich EIA (CA215; 10 μg/ml Human IgG): 100% | Relative Signal Intensity in Sandwich EIA (CA215; No Human IgG): 100% | binding to goat anti-mouse IgG (in words) (Goat Anti-mouse IgG; antibody-coated microwells): strong binding | Relative Intensity (Goat Anti-mouse IgG): 100% | binding to goat anti-human IgG (in words) (Goat Anti-human IgG; antibody-coated microwells, alkaline phosphatase-labeled goat anti-human IgG): no binding | Relative Intensity (Goat Anti-human IgG): <0.5% | Relative Intensity (Goat Anti-human IgFc): <0.5% | Relative Intensity (Goat Anti-human IgFab): <1%

Reference: US8143373B2, “Carbohydrate-containing pan cancer marker” (Vancouver Biotech Ltd., priority 2007, dated 2012)
